Legend:
Assay type in all cases: in vivo
[1] = tested on: ducksalad (Heteranthera limosa); assay: Test B flooded paddy test plant response
In short: (§1)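 Rice, umbrella sedge, ducksalad and barnyardgrass at 2-leaf stage; pots flooded to 3 cm, compounds applied into paddy water, depth held throughout. Greenhouse 13 to 15 days, then visual rating vs untreated controls on 0–100 scale (0 no effect, 100 complete control); dash means no test result.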

rice (Oryza sativa) = assay: Test B flooded paddy test plant response
In short: as §1

[2] = tested on: barnyardgrass (Echinochloa crus-galli); assay: Test B flooded paddy test plant response
In short: as §1

[3] = tested on: umbrella sedge (Cyperus difformis); assay: Test B flooded paddy test plant response
In short: as §1

[4] = tested on: canarygrass (Phalaris minor); assay: Test B postemergence plant response; conditions: for Plant response rating, Canarygrass: Postemergence
In short: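 Following treatment of plants 2 to 18 cm high after emergence, pots were held under glass for 13 to 15 days; efficacy was then graded visually, 100 denoting complete control and a dash no test result.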

[5] = tested on: large crabgrass (Digitaria sanguinalis); assay: Test A pre-/postemergence plant response
In short: (§2)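 Scores reflect visual plant injury relative to untreated controls on a 0–100 scale, recorded approximately 10 days after simultaneous preemergence soil spraying and postemergence spraying of one- to two-leaf seedlings grown in loam–sand.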

[6] = tested on: wheat (Triticum aestivum); assay: Test A pre-/postemergence plant response
In short: as §2

[7] = tested on: giant foxtail (Setaria faberi); assay: Test A pre-/postemergence plant response
In short: as §2

[8] = tested on: pigweed (Amaranthus retroflexus); assay: Test A pre-/postemergence plant response
In short: as §2

[9] = tested on: barnyardgrass (Echinochloa crus-galli); assay: Test A pre-/postemergence plant response
In short: as §2

corn (Zea mays) = assay: Test A pre-/postemergence plant response
In short: as §2

[10] = Flood (flooded paddy test), 62 g ai/ha, scale 0 to 100, 0 no effect, 100 complete control
[11] = Flood (flooded paddy test), 250 g ai/ha, scale 0 to 100, 0 no effect, 100 complete control
[12] = 62 g ai/ha, scale 0 to 100, 0 no effect, 100 complete control
[13] = Postemergence, 31 g ai/ha, 0 to 100 scale, 0 no effect, 100 complete control
[14] = Postemergence, 125 g ai/ha, 0 to 100 scale, 0 no effect, 100 complete control
[15] = Preemergence, 31 g ai/ha, 0 to 100 scale, 0 is no effect, 100 is complete control
[16] = Preemergence, 125 g ai/ha, 0 to 100 scale (0 no effect, 100 complete control)
[17] = Flood (flooded paddy test), 125 g ai/ha, scale 0 to 100, 0 no effect, 100 complete control
[18] = Flood, 31 g ai/ha, scale 0 to 100

CCCc1cc(-c2ccc(Cl)cc2)nn1-c1c(O)cnn(C)c1=O [Compound 76]
80: Plant response rating, Crabgrass, Large [5, 16]
100: Plant response rating, Crabgrass, Large [5, 14] | Plant response rating, Foxtail, Giant [7, 16] | Plant response rating, Barnyardgrass [9, 14] | Plant response rating, Barnyardgrass [9, 16] | Plant response rating, Corn (corn (Zea mays); [14])
50: Plant response rating, Wheat [6, 14] | Plant response rating, Corn (corn (Zea mays); [16])
70: Plant response rating, Foxtail, Giant [7, 13] | Plant response rating, Foxtail, Giant [7, 15]
60: Plant response rating, Canarygrass ([4]; 16 g ai/ha, scale 0 to 100)
98: Plant response rating, Canarygrass [4, 12]
20: Plant response rating, Crabgrass, Large [5, 13] | Plant response rating, Crabgrass, Large [5, 15] | Plant response rating, Wheat [6, 13] | Plant response rating, Corn (corn (Zea mays); [13])
45: Canarygrass plant response rating ([4]; 8 g ai/ha, postemergence, 0-100 scale)
40: Plant response rating, Barnyardgrass [9, 15]
0: Plant response rating, Ducksalad [1, 10] | Plant response rating, Ducksalad [1, 11] | Plant response rating, Rice (rice (Oryza sativa); [10]) | Plant response rating, Rice (rice (Oryza sativa); [11]) | Plant response rating, Barnyardgrass [2, 10] | Plant response rating, Barnyardgrass [2, 11] | Plant response rating, Sedge, Umbrella [3, 10] | Plant response rating, Sedge, Umbrella [3, 11] | Plant response rating, Wheat [6, 15] | Plant response rating, Wheat [6, 16] | Plant response rating, Pigweed [8, 13] | Plant response rating, Pigweed [8, 14] | Plant response rating, Pigweed [8, 15] | Plant response rating, Pigweed [8, 16] | Plant response rating, Corn (corn (Zea mays); [15])
90: Plant response rating, Canarygrass ([4]; 31 g ai/ha, scale 0 to 100) | Plant response rating, Foxtail, Giant [7, 14] | Plant response rating, Barnyardgrass [9, 13]

CCCc1cc(-c2ccc(C(F)(F)F)cc2)nn1-c1c(O)cnn(C)c1=O [Compound 72]
60: Plant response rating, Sedge, Umbrella [3, 17] | Plant response rating, Crabgrass, Large [5, 16] | Plant response rating, Wheat [6, 13]
10: Plant response rating, Rice (rice (Oryza sativa); [18])
95: Plant response rating, Canarygrass [4, 12]
50: Plant response rating, Wheat [6, 15] | Plant response rating, Barnyardgrass [9, 13] | Plant response rating, Corn (corn (Zea mays); [16])
30: Plant response rating, Canarygrass ([4]; 16 g ai/ha, scale 0 to 100) | Plant response rating, Canarygrass ([4]; 31 g ai/ha, scale 0 to 100)
15: Plant response rating, Rice (rice (Oryza sativa); [10])
80: Plant response rating, Wheat [6, 16] | Plant response rating, Corn (corn (Zea mays); [13])
100: Plant response rating, Foxtail, Giant [7, 14] | Plant response rating, Barnyardgrass [9, 14] | Plant response rating, Corn (corn (Zea mays); [14])
20: Plant response rating, Barnyardgrass [2, 10] | Plant response rating, Crabgrass, Large [5, 13] | Plant response rating, Barnyardgrass [9, 15] | Plant response rating, Corn (corn (Zea mays); [15])
65: Plant response rating, Rice (rice (Oryza sativa); [11]) | Plant response rating, Sedge, Umbrella [3, 11]
40: Plant response rating, Ducksalad [1, 11] | Plant response rating, Barnyardgrass [2, 17]
70: Plant response rating, Barnyardgrass [2, 11] | Plant response rating, Foxtail, Giant [7, 15]
45: Plant response rating, Rice (rice (Oryza sativa); [17])
0: Plant response rating, Ducksalad [1, 10] | Plant response rating, Ducksalad [1, 17] | Plant response rating, Ducksalad [1, 18] | Plant response rating, Barnyardgrass [2, 18] | Plant response rating, Sedge, Umbrella [3, 10] | Plant response rating, Sedge, Umbrella [3, 18] | Plant response rating, Crabgrass, Large [5, 15] | Plant response rating, Pigweed [8, 13] | Plant response rating, Pigweed [8, 14] | Plant response rating, Pigweed [8, 15] | Plant response rating, Pigweed [8, 16]
90: Plant response rating, Crabgrass, Large [5, 14] | Plant response rating, Wheat [6, 14] | Plant response rating, Foxtail, Giant [7, 13] | Plant response rating, Foxtail, Giant [7, 16] | Plant response rating, Barnyardgrass [9, 16]

From US20100267561A1, “HERBICIDAL PYRIDAZINONE DERIVATIVES” (priority 2007, published 2010)
